Earlier results in PubChem BioAssay AID1259409 (Chemical Carcinogenesis Research Information System (CCRIS), 2018).
Where “and” joins values, the source holds several entries; their conditions need not be identical. Equal entries are not always repeated.

Tested on: rodent chemically induced tumor inhibition, incidence and multiplicity
Assay: CCRIS tumor inhibitor studies
Conditions: Dose [Inhibitor]: 0

N#C[Se]Cc1ccc(C[Se]C#N)cc1
tumour outcome (control, treated, inhibition, significance) (Carcinogen: 4(Methylnitrosamino)-1-(3-pyridyl)-1-butanone (NNK) (62339-61-1), 10 ppm as Se in diet, wks 6 to 32, study duration 26 wk, Route [Inhibitor]: Oral, Species: Mouse, Strain/Sex: A/J / Female, Target Tissue: Type of Lesion: Lung: Tumor, Dose [Carcinogen]: 3 umol once a wk for 8 wk beginning at wk 6 (total of 24 umol/mouse), study duration 26 wk): 90%, 20% (78% reduction), p<0.001 and 96%, 68% (30% reduction), p<0.01 | tumour outcome (control, treated, inhibition, significance) (Carcinogen: 4-(METHYLNITROSAMINO)-1-(3-PYRIDYL)-1-BUTANONE, 64091-91-4, 0.0005% IN DIET FOR 17 WK BEGINNING 1 WK PRIOR TO CARCINOGEN DOSE (STUDY DURATION: 17 WK), Route [Inhibitor]: ORAL, Species: MOUSE, Strain/Sex: STRAIN-A/FEMALE, Target Tissue: Type of Lesion: LUNG: ADENOMA, Dose [Carcinogen]: 10 UMOL IN 0.1 ML SALINE ONCE, Promoter: NONE USED): 100%, 100%, 0%, not significant | tumour outcome (control, treated, inhibition, significance) (Carcinogen: 4-(METHYLNITROSAMINO)-1-(3-PYRIDYL)-1-BUTANONE, 64091-91-4, 5 PPM IN DIET BEGINNING 1 WK PRIOR TO CARCINOGEN TREATMENT AND CONTINUING FOR 16 WK POST CARCINOGEN TREATMENT (STUDY, Route [Inhibitor]: ORAL, Species: MOUSE, Strain/Sex: STRAIN-A/FEMALE, Target Tissue: Type of Lesion: LUNG: ADENOMA, Dose [Carcinogen]: 10 UMOL IN 0.1 ML SALINE, Promoter: NONE USED): 100%, 100%, 0%, not significant | tumour outcome (control, treated, inhibition, significance) (Carcinogen: 4-(METHYLNITROSAMINO)-1-(3-PYRIDYL)-1-BUTANONE, 64091-91-4, 7.5 PPM IN DIET FOR 3 WK BEGINNING 1 WK PRIOR TO CARCINOGEN DOSE (STUDY DURATION: 18 WK), Route [Inhibitor]: ORAL, Species: MOUSE, Strain/Sex: STRAIN-A/FEMALE, Target Tissue: Type of Lesion: LUNG: TUMOR, Dose [Carcinogen]: 10 UMOL IN 0.1 ML SALINE ONCE, Promoter: NONE USED): 100%, 80%, 20%, not significant | tumour outcome (control, treated, inhibition, significance) (Carcinogen: 4-(METHYLNITROSAMINO)-1-(3-PYRIDYL)-1-BUTANONE, 64091-91-4, 7.5 PPM IN DIET FOR 15 WK BEGINNING 1 WK POST CARCINOGEN DOSE (STUDY DURATION: 18 WK), Route [Inhibitor]: ORAL, Species: MOUSE, Strain/Sex: STRAIN-A/FEMALE, Target Tissue: Type of Lesion: LUNG: TUMOR, Dose [Carcinogen]: 10 UMOL IN 0.1 ML SALINE ONCE, Promoter: NONE USED): 100%, 96%, 4%, not significant | tumour outcome (control, treated, inhibition, significance) (Carcinogen: 4-(METHYLNITROSAMINO)-1-(3-PYRIDYL)-1-BUTANONE, 64091-91-4, 10 PPM IN DIET BEGINNING 1 WK PRIOR TO CARCINOGEN TREATMENT AND CONTINUING FOR 16 WK POST CARCINOGEN TREATMENT (STUDY, Route [Inhibitor]: ORAL, Species: MOUSE, Strain/Sex: STRAIN-A/FEMALE, Target Tissue: Type of Lesion: LUNG: ADENOMA, Dose [Carcinogen]: 10 UMOL IN 0.1 ML SALINE, Promoter: NONE USED): 100%, 90%, 10%, not significant | tumour outcome (control, treated, inhibition, significance) (Carcinogen: 4-(METHYLNITROSAMINO)-1-(3-PYRIDYL)-1-BUTANONE, 64091-91-4, 15 PPM IN DIET BEGINNING 1 WK PRIOR TO CARCINOGEN TREATMENT AND CONTINUING FOR 16 WK POST CARCINOGEN TREATMENT (STUDY, Route [Inhibitor]: ORAL, Species: MOUSE, Strain/Sex: STRAIN-A/FEMALE, Target Tissue: Type of Lesion: LUNG: ADENOMA, Dose [Carcinogen]: 10 UMOL IN 0.1 ML SALINE, Promoter: NONE USED): 100%, 85%, 15%, not significant | tumour outcome (control, treated, inhibition, significance) (Carcinogen: 4-(METHYLNITROSAMINO)-1-(3-PYRIDYL)-1-BUTANONE, 64091-91-4, 15 PPM IN DIET FOR 3 WK BEGINNING 2 WK PRIOR TO CARCINOGEN DOSE (STUDY DURATION: 18 WK), Route [Inhibitor]: ORAL, Species: MOUSE, Strain/Sex: STRAIN-A/FEMALE, Target Tissue: Type of Lesion: LUNG: TUMOR, Dose [Carcinogen]: 10 UMOL IN 0.1 ML SALINE ONCE, Promoter: NONE USED): 100%, 80%, 20%, not significant | tumour outcome (control, treated, inhibition, significance) (Carcinogen: 4-(METHYLNITROSAMINO)-1-(3-PYRIDYL)-1-BUTANONE, 64091-91-4, 15 PPM IN DIET FOR 15 WK BEGINNING 1 WK POST CARCINOGEN DOSE (STUDY DURATION: 18 WK), Route [Inhibitor]: ORAL, Species: MOUSE, Strain/Sex: STRAIN-A/FEMALE, Target Tissue: Type of Lesion: LUNG: TUMOR, Dose [Carcinogen]: 10 UMOL IN 0.1 ML SALINE ONCE, Promoter: NONE USED): 100%, 96%, 4%, not significant | tumour outcome (control, treated, inhibition, significance) (Carcinogen: 7,12-DIMETHYLBENZ[A]ANTHRACENE, 57-97-6, 2.5 PPM (AS SELENIUM) IN DIET BEGINNING 2 WK PRIOR TO CARCINOGEN DOSE AND CONTINUING FOR DURATION OF STUDY (STUDY DUR, Route [Inhibitor]: ORAL, Species: RAT, Strain/Sex: SPRAGUE-DAWLEY/FEMALE, Target Tissue: Type of Lesion: MAMMARY GLAND: ADENOCARCINOMA, Dose [Carcinogen]: 10 MG ONCE AT 55 D OF AGE, Promoter: NONE USED): 88%, 72%, 18%, not significant | tumour outcome (control, treated, inhibition, significance) (Carcinogen: 7,12-DIMETHYLBENZ[A]ANTHRACENE, 57-97-6, 5 PPM (AS SELENIUM) IN DIET BEGINNING 1 WK POST CARCINOGEN DOSE AND CONTINUING FOR 25 WK (STUDY DURATION: 25 WK), Route [Inhibitor]: ORAL, Species: RAT, Strain/Sex: SPRAGUE-DAWLEY/FEMALE, Target Tissue: Type of Lesion: MAMMARY GLAND: ADENOCARCINOMA, Dose [Carcinogen]: 10 MG ONCE AT 55 D OF AGE, Promoter: NONE USED): 22/25 (88%), 17/25 (68%), 23%, not significant
